23 molecules from patent US9045470B2, “Compounds and compositions as TLR activity modulators” (IRM LLC, priority 2009, dated 2015) can be followed below.

The target of one data set is T1, human TLR7 (Homo sapiens, UniProt Q9NYK1).
T1 construct: expressed in transfected cells; host or cells: HEK 293 (human embryonic kidney 293), stably transfected; co-transfected pNifty-Luciferase reporter
T1 sequence (Q9NYK1 27-1049): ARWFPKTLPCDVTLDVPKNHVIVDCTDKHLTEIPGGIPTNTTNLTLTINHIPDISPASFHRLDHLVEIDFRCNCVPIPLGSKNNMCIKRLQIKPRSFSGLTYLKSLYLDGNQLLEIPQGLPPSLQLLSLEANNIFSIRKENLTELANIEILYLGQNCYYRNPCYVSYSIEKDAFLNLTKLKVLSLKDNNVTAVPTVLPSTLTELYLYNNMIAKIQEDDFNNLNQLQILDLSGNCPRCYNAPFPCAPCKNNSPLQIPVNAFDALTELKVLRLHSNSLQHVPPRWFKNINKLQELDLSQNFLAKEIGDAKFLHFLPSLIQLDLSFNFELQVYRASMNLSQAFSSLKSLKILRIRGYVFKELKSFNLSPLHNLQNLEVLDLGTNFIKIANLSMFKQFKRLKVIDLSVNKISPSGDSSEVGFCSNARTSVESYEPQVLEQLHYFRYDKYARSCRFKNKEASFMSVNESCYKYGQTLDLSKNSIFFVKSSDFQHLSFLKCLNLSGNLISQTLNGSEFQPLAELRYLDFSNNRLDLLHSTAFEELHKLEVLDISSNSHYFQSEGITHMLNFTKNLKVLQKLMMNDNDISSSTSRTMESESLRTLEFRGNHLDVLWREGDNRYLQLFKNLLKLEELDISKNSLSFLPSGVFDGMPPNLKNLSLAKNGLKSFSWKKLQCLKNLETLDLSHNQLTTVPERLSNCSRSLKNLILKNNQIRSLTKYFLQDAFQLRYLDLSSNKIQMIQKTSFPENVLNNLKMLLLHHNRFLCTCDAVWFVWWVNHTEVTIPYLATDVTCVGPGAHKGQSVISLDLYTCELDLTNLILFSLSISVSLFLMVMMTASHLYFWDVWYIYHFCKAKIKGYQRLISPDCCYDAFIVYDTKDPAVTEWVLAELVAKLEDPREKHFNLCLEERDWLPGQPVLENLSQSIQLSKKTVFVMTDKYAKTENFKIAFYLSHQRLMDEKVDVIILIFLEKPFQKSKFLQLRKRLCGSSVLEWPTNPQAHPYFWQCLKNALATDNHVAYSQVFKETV
Put plainly: Reporter gene assay: HEK293 cells stably transfected with human TLR7 and NF-kB-driven luciferase reporter. Format: cell-based. As for the experimental part: Human embryonic kidney 293 (HEK 293) cells were stably transfected with human TLR7 and an NF-kB-driven luciferase reporter vector (pNifty-Luciferase). As a control assay, normal Hek293 transfected with pNifty-Luc were used. Cells were cultured in DMEM supplemented with 2 mM L-glutamine, 10% heart inactivated FBS, 1% penicillin and streptomycin, 2 μg/ml puromycin (InvivoGen #ant-pr-5) and 5 μg/ml of blasticidin (Invitrogen #46-1120). Bright-Glo™ Luciferase assay buffer and substrate were supplied by Promega #E263B and #E264B (assay substrate and buffer respectively). 384 well clear-bottom plates were supplied by Greiner bio-one (#789163-G) and were custom bar-coded plates.
Cells were plated at 25,000 cells/well in 384-well plates in a final volume of 50 μl of media. Cells were allowed to adhere to the plates after overnight (18 hours) culture at 37° C. and 5% CO2. Serially diluted experimental and positive control compounds were then dispensed to each well and incubated for 7 hours at 37° C. and 5% CO2. Cells stimulated with DMSO alone also serve as negative controls. After the incubation, 30 μl of the pre-mix assay buffer and substrate buffer were added to each well according to manufacturer's instructions.
The EC50 value in those experiments is given as that concentration of the test compound in question that provoke a response halfway between the baseline and maximum responses. […] Such EC50 values are obtained relative to the activity of resiquimod set to 100%.
(A reporter such as luciferase makes a cellular process visible.)

Data set [1] in a line: Binding to alum in 10 mM histidine buffer, LC-MS/MS of supernatant. Format: physicochemical. Particulars: 10 mM histidine buffer pH 6.8; final compound 0.1 mg/mL; 37° C. for 5 hours; 100% minus % unbound.
Procedure: The resulting solution was diluted 10-fold with blank histidine buffer to a final compound concentration of 0.1 mg/mL. Diluted solutions were incubated at 37° C. for 5 hours. The samples were centrifuged at 14,000 rpm for 10 minutes to pellet the insoluble. The supernatant (along with an internal standard) was then evaluated by LC-MS/MS using a ballistic gradient (from 5% CH3CN-0.5% formic acid to 95% CH3CN-1.0% formic acid in 3.5 minutes) on a Waters Atlantis dC18 (50 mm×2.1 mm) column at room temperature against a calibration curve prepared at known compound concentrations ranging from 0.005 to 50 μM. The concentration in the supernatant was calculated as % unbound to alum compared to control; the % bound to alum was calculated as 100% minus % unbound.
The mark [2] stands for this setting: HEK293 stably transfected with human TLR7 and NF-kB luciferase reporter, 7 hours incubation, relative to resiquimod set to 100%, read-out: Human TLR7 EC50 (nM) HEK293.

Read-outs that look alike come from different tables or passages of the source.

In the case of `COc1ccc(CCc2cnc3c(N)nc4cc(C(=O)C(F)(F)P(=O)(O)O)ccc4c3c2)c(C)c1` [Compound 9, 2-(5-amino-2-(4-methoxy-2-methylphenethyl)benzo[f][1,7]naphthyridin-8-yl)-1,1-difluoro-2-oxoethylphosphonic acid], it took 390 nM to reach a half-maximal effect on human TLR7 (EC50).

Turning to `Cc1ccc2c(c1)nc(N)c1ncc(CCc3ccc(OCP(=O)(O)O)cc3C)cc12` [Compound 3, (4-(2-(5-amino-8-methylbenzo[f][1,7]naphthyridin-2-yl)ethyl)-3-methylphenoxy)methylphosphonic acid], the response at human TLR7 was half-maximal at 3170 nM (EC50).

With `Cc1cc(OCCOCCOCCC(F)(F)P(=O)(O)O)ccc1CCc1cnc2c(N)nc3cc(CCC(=O)O)ccc3c2c1` [Compound 17, 3-(5-amino-2-(4-(2-(2-(3,3-difluoro-3-phosphonopropoxy)ethoxy)ethoxy)-2-methylphenethyl)benzo[f][1,7]naphthyridin-8-yl)propanoic acid], the concentration giving a half-maximal response (EC50) (commonly the concentration at which the effect is half-maximal) on human TLR7 came out at 5 nM. Further, in data set [1], the “% Alum bound in Histidine buffer” value came out at 96.2%.

In turn, `Cc1ccc2c(c1)nc(N)c1ncc(CCc3ccc(OCCCCP(=O)(O)O)cc3C)cc12` [Compound 28, 4-(4-(2-(5-amino-8-methylbenzo[f][1,7]naphthyridin-2-yl)ethyl)-3-methylphenoxy)butylphosphonic acid] yielded an EC50 at human TLR7 of 524 nM.

At human TLR7, `Cc1ccc2c(c1)nc(N)c1ncc(CCc3ccc(OCc4cccc(P(=O)(O)O)c4)cc3C)cc12` [Compound 13, 3-((4-(2-(5-amino-8-methylbenzo[f][1,7]naphthyridin-2-yl)ethyl)-3-methylphenoxy)methyl)phenylphosphonic acid] displayed an EC50 of 1050 nM.

On to `Cc1cc(OCCCP(=O)(O)O)ccc1CCc1cnc2c(N)nc3cc(CCC(=O)O)ccc3c2c1` [Compound 15, 3-(5-amino-2-(2-methyl-4-(3-phosphonopropoxy)phenethyl)benzo[f][1,7]naphthyridin-8-yl)propanoic acid], for which the 50% effective concentration (EC50) at human TLR7 amounted to 65 nM.

In the case of `Cc1ccc2c(c1)nc(N)c1ncc(CCc3ccc(OCCCCCCP(=O)(O)O)cc3C)cc12` [Compound 23, 6-(4-(2-(5-amino-8-methylbenzo[f][1,7]naphthyridin-2-yl)ethyl)-3-methylphenoxy)hexylphosphonic acid], the EC50 at human TLR7 came to 791 nM.

For the molecule `Cc1cc(OCCOCCP(=O)(O)O)ccc1CCc1cnc2c(N)nc3cc(CCC(=O)O)ccc3c2c1` [Compound 21, 3-(5-amino-2-(2-methyl-4-(2-(2-phosphonoethoxy)ethoxy)phenethyl)benzo[f][1,7]naphthyridin-8-yl)propanoic acid], the EC50 at human TLR7 (setting [2]) came out at 204 nM.

Consider `Cc1ccc2c(c1)nc(N)c1ncc(CCc3ccc(OCCCCCP(=O)(O)O)cc3C)cc12` [Compound 27, 5-(4-(2-(5-amino-8-methylbenzo[f][1,7]naphthyridin-2-yl)ethyl)-3-methylphenoxy)pentylphosphonic acid], for which the midpoint of the response on human TLR7, the EC50, lay at 921 nM.

Consider `Cc1cc(OCCOCCC(F)(F)P(=O)(O)O)ccc1CCc1cnc2c(N)nc3cc(CCC(=O)O)ccc3c2c1` [Compound 19, 3-(5-amino-2-(4-(2-(3,3-difluoro-3-phosphonopropoxy)ethoxy)-2-methylphenethyl)benzo[f][1,7]naphthyridin-8-yl)propanoic acid], for which the “% Alum bound in Histidine buffer” value in data set [1] stood at 96.0%.

Turning to `Cc1ccc2c(c1)nc(N)c1ncc(CCc3ccc(OP(=O)(O)O)cc3C)cc12` [Compound 2, 4-(2-(5-amino-8-methylbenzo[f][1,7]naphthyridin-2-yl)ethyl)-3-methylphenyl dihydrogen phosphate], on human TLR7 (setting [2]), the EC50 stood at 315 nM.

On to `Cc1ccc2c(c1)nc(N)c1ncc(CCc3ccc(OCCOCCOCCP(=O)(O)O)cc3C)cc12` [Compound 26, 2-(2-(2-(4-(2-(5-amino-8-methylbenzo[f][1,7]naphthyridin-2-yl)ethyl)-3-methylphenoxy)ethoxy)ethoxy)ethylphosphonic acid], for which, on human TLR7, the EC50 was determined as 2590 nM.

Molecule `Cc1ccc2c(c1)nc(N)c1ncc(CCc3ccc(OCc4ccc(CC(F)(F)P(=O)(O)O)cc4)cc3C)cc12` [Compound 8, 2-(4-((4-(2-(5-amino-8-methylbenzo[f][1,7]naphthyridin-2-yl)ethyl)-3-methylphenoxy)methyl)phenyl)-1,1-difluoroethylphosphonic acid] yielded a half-maximal effective concentration (EC50) on human TLR7 of 375 nM.

As for `COc1ccc(CCc2cnc3c(N)nc4cc(/C=C(\F)P(=O)(O)O)ccc4c3c2)c(C)c1` [Compound 12, (E)-2-(5-Amino-2-(4-methoxy-2-methylphenethyl)benzo[f][1,7]naphthyridin-8-yl)-1-fluorovinylphosphonic acid], a half-maximal response on human TLR7 (EC50) required 201 nM.

Consider `Cc1ccc2c(c1)nc(N)c1ncc(CCc3ccc(OCCCCCC(F)(F)P(=O)(O)O)cc3C)cc12` [Compound 24, 6-(4-(2-(5-amino-8-methylbenzo[f][1,7]naphthyridin-2-yl)ethyl)-3-methylphenoxy)-1,1-difluorohexylphosphonic acid], for which, at human TLR7, the midpoint of the response, the EC50, lay at 4260 nM.

`COc1ccc(CCc2cnc3c(N)nc4cc(C(=O)P(=O)(O)O)ccc4c3c2)c(C)c1` [Compound 14, 5-amino-2-(4-methoxy-2-methylphenethyl)benzo[f][1,7]naphthyridine-8-carbonylphosphonic acid] gave a concentration giving a half-maximal response (EC50) on human TLR7 of 885 nM.

On to `Cc1ccc2c(c1)nc(N)c1ncc(CCc3ccc(OCCOCCC(F)(F)P(=O)(O)O)cc3C)cc12` [Compound 7, 3-(2-(4-(2-(5-amino-8-methylbenzo[f][1,7]naphthyridin-2-yl)ethyl)-3-methylphenoxy)ethoxy)-1,1-difluoropropylphosphonic acid], for which, at human TLR7, the 50% effective concentration (EC50) was 1010 nM.

For `Cc1ccc2c(c1)nc(N)c1ncc(CCc3ccc(OCc4ccc(CP(=O)(O)O)cc4)cc3C)cc12` [Compound 25, 4-((4-(2-(5-amino-8-methylbenzo[f][1,7]naphthyridin-2-yl)ethyl)-3-methylphenoxy)methyl)benzylphosphonic acid], the concentration giving a half-maximal response (EC50) on human TLR7 turned out to be 975 nM.

In turn, `COc1ccc(CCc2cnc3c(N)nc4cc(/C=C/P(=O)(O)O)ccc4c3c2)c(C)c1` [Compound 10, (E)-2-(5-Amino-2-(4-methoxy-2-methylphenethyl)benzo[f][1,7]naphthyridin-8-yl)vinylphosphonic acid] displayed an EC50 on human TLR7 of 153 nM.

The molecule `COc1ccc(CCc2cnc3c(N)nc4cc(CCP(=O)(O)O)ccc4c3c2)c(C)c1` [Compound 11, 2-(5-amino-2-(4-methoxy-2-methylphenethyl)benzo[f][1,7]naphthyridin-8-yl)ethylphosphonic acid] yielded an EC50 on human TLR7 of 90 nM.

Molecule `Cc1ccc2c(c1)nc(N)c1ncc(CCc3ccc(OCCP(=O)(O)O)cc3C)cc12` [Compound 22, 2-(4-(2-(5-amino-8-methylbenzo[f][1,7]naphthyridin-2-yl)ethyl)-3-methylphenoxy)ethylphosphonic acid] had a half-maximal effective concentration (EC50) at human TLR7 of 1160 nM.

Regarding `Cc1cc(OCCOCCOCCOCCP(=O)(O)O)ccc1CCc1cnc2c(N)nc3cc(CCC(=O)O)ccc3c2c1` [Compound 18, 3-(5-amino-2-(2-methyl-4-(2-(2-(2-(2-phosphonoethoxy)ethoxy)ethoxy)ethoxy)phenethyl)benzo[f][1,7]naphthyridin-8-yl)propanoic acid], the midpoint of the response at human TLR7, the EC50, lay at 964 nM.

As for `Cc1ccc2c(c1)nc(N)c1ncc(CCc3ccc(OCCCCC(F)(F)P(=O)(O)O)cc3C)cc12` [Compound 4, 5-(4-(2-(5-amino-8-methylbenzo[f][1,7]naphthyridin-2-yl)ethyl)-3-methylphenoxy)-1,1-difluoropentylphosphonic acid], the EC50 at human TLR7 stood at 559 nM.
